Measurements reported in ChEMBL document CHEMBL4342505, “Achieving In Vivo Target Depletion through the Discovery and Optimization of Benzimidazolone BCL6 Degraders” (J Med Chem, 2020).
Values after ≈ are worked out from the molar mass of the structure shown. Active and inactive are the calls of the source. The rule behind the calls is not given here.

Legend:
[1] = in vivo; conditions: SCID, mouse, po, 50 mg/kg
[2] = Kinetic solubility in HEPES buffer containing 5% DMSO at pH 8 incubated for 20 hrs by NMR analysis; format: physicochemical; conditions: read-out: Kinetic_solubility
[3] = tested on: OCI-Ly1; assay: Antiproliferative activity agianst human OCI-LY1 cells assessed as growth inhibition incubated for 14 days by CellTiter Glo reagent based assay
[4] = Cmax in SCID mouse at 15 mg/kg, po measured upto 24 hrs by LC/MS-MS analysis; format: ADME, organism-based; design: dose 15 mg/kg, route oral; conditions: in vivo
[5] = Metabolic stability in CD-1 mouse liver microsomes assessed as intrinsic clearance at 1 uM measured upt0 30 mins by LC-MS/MS analysis; format: ADME, Microsome; conditions: 0.5 h
[6] = in vivo; conditions: SCID, mouse, po, 5 mg/kg
[7] = in vivo; conditions: SCID, mouse, po, 15 mg/kg
[8] = Kinetic solubility in PBS buffer containing 1% DMSO at pH 7.4 incubated for 2 hrs by HPLC analysis; format: physicochemical; conditions: read-out: Kinetic_solubility
[9] = Plasma concentration in SCID mouse; format: ADME, cell-free
[10] = tested on: Mus musculus; assay: In vivo inhibition of BCL6 in SCID mouse xenografted with human OCI-LY1 cells assessed as reduction in BCL6 level at 15 mg/kg, po measured at 12 and 16 hrs by Western blot analysis; format: functional, organism-based
[11] = Cmax in SCID mouse at 5 mg/kg, po measured upto 24 hrs by LC/MS-MS analysis; format: ADME, organism-based; design: dose 5 mg/kg, route oral; conditions: in vivo
[12] = Protein binding in SCID mouse plasma assessed as unbound fraction; format: ADME, cell-free
[13] = tested on: SUD4; assay: Antiproliferative activity agianst human SUDHL4 cells assessed as growth inhibition incubated for 14 days by CellTiter Glo reagent based assay; format: functional; conditions: SU-DHL-4, […]
[14] = Cmax in SCID mouse at 50 mg/kg, po measured upto 24 hrs by LC/MS-MS analysis; format: ADME, organism-based; design: dose 50 mg/kg, route oral; conditions: in vivo
[15] = Toxicity in SCID mouse xenografted with human OCI-LY1 cells assessed as adverse effect at 15 mg/kg, po observed for 24 hrs; format: organism-based; conditions: in vivo
[16] = Lipophilicity, log D of compound at pH 7.4; format: physicochemical; conditions: buffer
[17] = AUC (0 to 10 hrs) in SCID mouse at 5 mg/kg, po measured upto 10 hrs by LC/MS-MS analysis; format: ADME, organism-based; design: time < 10 hr, dose 5 mg/kg, route oral; conditions: in vivo
[18] = Drug level in SCID mouse blood; format: ADME, tissue-based; conditions: read-out: Ct
[19] = tested on: OCI-Ly3; assay: Antiproliferative activity agianst human OCI-LY3 cells assessed as growth inhibition incubated for 14 days by CellTiter Glo reagent based assay
[20] = AUC (0 to 10) hrs in SCID mouse at 50 mg/kg, po measured upto 10 hrs by LC/MS-MS analysis; format: ADME, organism-based; design: dose 50 mg/kg, time < 10 hr, route oral; conditions: in vivo
[21] = AUC (0 to 10 hrs) in SCID mouse at 15 mg/kg, po measured upto 10 hrs by LC/MS-MS analysis; format: ADME, organism-based; design: dose 15 mg/kg, time < 10 hr, route oral; conditions: in vivo
[22] = tested on: Mus musculus; assay: In vivo inhibition of BCL6 in SCID mouse xenografted with human OCI-LY1 cells assessed as reduction in BCL6 level at 15 mg/kg, po measured upto 10 hrs by Western blot analysis; format: functional, organism-based

## C[C@@H]1CN(c2ncc(Cl)c(Nc3ccc4c(c3)n(CCC(C)(C)O)c(=O)n4C)n2)C[C@H](C)C1(F)F
[1]
  Tmax at 24 h: 2 to 6 h
[2]
  solubility kinetic at 20 h: 11 µM (≈ 5.6 µg/mL)
[3]
  GI50: 35 nM
[4]
  Cmax: 6680 to 6930 nM
[5]
  CLH: 78 µL/min/mg
[6]
  Tmax at 24 h: 0.5 to 1 h
[7]
  Tmax at 24 h: 0.5 to 2 h
[8]
  solubility kinetic at 2 h: 8 µM (≈ 4.07 µg/mL)
[9]
  concentration: 1500 nM
[10]
  inhibition: inactive
[11]
  Cmax: 1870 to 2040 nM
[12]
  fraction unbound: 0.0007
[13]
  GI50: 92 nM
[14]
  Cmax: 5320 to 6210 nM
[15]
  Activity: Non-Toxic
[16]
  logD: 4.3
[17]
  AUC(0-t) at 10 h: 11.6 to 13.1 µM·h
[18]
  concentration: 2800 nM
[19]
  GI50: 1600 nM
[20]
  AUC at 10 h: 47.4 to 56.3 µM·h
[21]
  AUC(0-t) at 10 h: 48.2 to 49.3 µM·h
[22]
  inhibition: Active
